These results are taken from patent US7998965B2, “Glutamate aggrecanase inhibitors” (Wyeth LLC, priority 2005, dated 2011).

Molecules are shown by their SMILES.

The target in assay [1] is T1, purified recombinant human Aggrecanase-1 (rAgg1) (Homo sapiens, UniProt O75173).
T1 sequence (O75173 213-837): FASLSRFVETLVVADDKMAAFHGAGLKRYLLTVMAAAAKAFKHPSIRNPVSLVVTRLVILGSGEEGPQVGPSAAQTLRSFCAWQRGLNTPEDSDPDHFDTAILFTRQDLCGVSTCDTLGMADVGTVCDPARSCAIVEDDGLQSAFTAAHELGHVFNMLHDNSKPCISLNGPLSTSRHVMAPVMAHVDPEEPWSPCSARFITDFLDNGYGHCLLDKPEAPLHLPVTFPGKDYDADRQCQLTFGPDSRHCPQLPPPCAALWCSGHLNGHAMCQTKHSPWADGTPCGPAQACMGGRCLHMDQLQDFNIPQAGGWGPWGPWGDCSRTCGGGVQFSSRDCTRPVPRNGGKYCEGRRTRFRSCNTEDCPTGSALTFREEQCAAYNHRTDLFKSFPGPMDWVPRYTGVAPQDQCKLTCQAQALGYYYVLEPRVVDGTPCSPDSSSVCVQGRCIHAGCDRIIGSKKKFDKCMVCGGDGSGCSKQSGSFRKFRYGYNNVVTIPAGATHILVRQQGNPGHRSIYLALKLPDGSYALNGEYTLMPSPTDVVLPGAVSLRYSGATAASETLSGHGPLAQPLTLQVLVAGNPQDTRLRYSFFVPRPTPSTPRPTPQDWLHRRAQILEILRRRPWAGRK
The assay can be described thus: In vitro fluorescence screen for Aggrecanase-1 inhibitors. The class given is biochemical. The conditions noted are these: Table 1; for Ki: enzyme not given, column follows Agg1 IC50, read-out: Ki; for IC50: read-out: Agg1 IC50.

Assay [2] deals with T2, purified recombinant human Aggrecanase-2 (Ag2t-Phe628-Strep) (Homo sapiens, UniProt Q9UNA0).
T2 construct: the form used is denoted as Ag2t-Phe628-Strep (MW=41,737)
T2 sequence (Q9UNA0 262-628): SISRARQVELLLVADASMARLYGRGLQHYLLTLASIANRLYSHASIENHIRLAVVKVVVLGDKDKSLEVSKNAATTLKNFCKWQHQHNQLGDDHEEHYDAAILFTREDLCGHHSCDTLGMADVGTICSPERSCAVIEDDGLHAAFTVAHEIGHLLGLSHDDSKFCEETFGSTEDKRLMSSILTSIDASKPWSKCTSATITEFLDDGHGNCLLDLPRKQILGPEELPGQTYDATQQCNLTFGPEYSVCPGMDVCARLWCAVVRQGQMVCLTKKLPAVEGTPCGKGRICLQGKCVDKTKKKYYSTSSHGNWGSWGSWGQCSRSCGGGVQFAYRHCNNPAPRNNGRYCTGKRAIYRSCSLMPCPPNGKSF
Put plainly: In vitro fluorescence screen for Aggrecanase-2 inhibitors. Format: biochemical. To be noted: Table 1; read-out: Agg 2 IC50.

The target of assay [3] is T3, recombinant human catalytic domain of MMP-13 (Homo sapiens, UniProt P45452).
T3 construct: catalytic domain of MMP-13 (165 amino acids, residues 104-268, 19 kDa)
The assay can be described thus: In vitro fluorescence assay of MMP-13 activity. The class given is biochemical. The conditions noted are these: Table 1; unit inferred.

Assay [4] deals with T4, recombinant human catalytic domain of MMP-14 (Homo sapiens, UniProt P50281).
T4 construct: 177 amino acids corresponding to Tyr89-Gly265 of mature human enzyme; purchased Chemicon International, Inc. CC1041
The assay can be described thus: In vitro fluorescence assay of MMP-14 activity. The class given is biochemical. The conditions noted are these: Table 1; for IC50: unit inferred.

Assay [5] relates to bovine articular cartilage treated with Interleukin 1 alpha (IL-1α). The assay can be described thus: Bovine articular cartilage explant cultures: inhibition of degradation of proteoglycan. The conditions noted are these: inhibitory effect expressed as percentage, concentration not printed. The class given is cell-based. From the text:
This in vitro procedure was used to evaluate the effect and relative potencies of small molecule compounds to inhibit the degradation of proteoglycan in articular cartilage treated with Interleukin 1 alpha (IL-1α). Treatment of articular cartilage with IL 1α induces expression of a cascade of enzymes that initiates cartilage matrix degradation. This assay was utilized to select small molecule compounds that inhibit the enzyme activity and protects cartilage matrix degradation.
Articular cartilage: bovine metacarpal joints were disinfected with 10% Wescodyne followed by 70% ethanol. 6 mm articular cartilage discs were prepared and rinsed once in PBS and medium, respectively. The discs were cultured in a stirring flask with serum-free medium for 5 days for equilibrium with one medium change. Small molecule compounds: stock solutions of test small molecule compounds (usually at 5 mg/ml) were prepared in DMSO. Working solutions were diluted with DMSO and generally ranged from 0.1 μg/ml to 10 ug/ml. The DMSO stocks were stored at […]. Articular cartilage explant culture medium: DMEM, 2 mM glutamax, 100 U/ml of antibiotic and antimycotic, 50 μg/ml ascorbate and 10 mM Hepes (pH-7.0). Proteoglycan content-Dimethyl methylene blue (DMMB) solution: […] DMMB, 10 ml 100% ethanol, 29.5 ml of 1M NaOH, 3.5 ml of 98% formic acid and water to 1 L. Chondroitin sulphate sodium salt: 1.56-200 ug/ml serial dilutions.
For the explant culture, cartilage discs were cultured in serum-free medium for 48 h or more. Discs were weighed and transferred to a 96-well plate, 1 disc per-well. 0.2 ml of medium containing 5 ng/ml of IL-1 and different concentrations of compounds were added to each well, with 3 wells allocated for each treatment. The medium was collected at days 1, 2, & 3 and replaced accordingly.
For the DMMB assay, conditioned medium (CM) samples were diluted with medium. 10 ul of each standard or diluted sample was added in duplicate into a 96-well-plate and 200 μl of DMMB solution was added into each well. Absorbance at 520 nm was measured for each well. Proteoglycan contents in CM were calculated daily.
The proteoglycan contents are expressed as ug per mg of cartilage. The inhibitory effect of the compounds is expressed as percentage. (See, Tortorella, M. D. et al., Science 1999, 284, 1664-1666).

In assay [6] the target is T5, MMP-1 (Homo sapiens, UniProt P03956).
T5 sequence (P03956 100-469): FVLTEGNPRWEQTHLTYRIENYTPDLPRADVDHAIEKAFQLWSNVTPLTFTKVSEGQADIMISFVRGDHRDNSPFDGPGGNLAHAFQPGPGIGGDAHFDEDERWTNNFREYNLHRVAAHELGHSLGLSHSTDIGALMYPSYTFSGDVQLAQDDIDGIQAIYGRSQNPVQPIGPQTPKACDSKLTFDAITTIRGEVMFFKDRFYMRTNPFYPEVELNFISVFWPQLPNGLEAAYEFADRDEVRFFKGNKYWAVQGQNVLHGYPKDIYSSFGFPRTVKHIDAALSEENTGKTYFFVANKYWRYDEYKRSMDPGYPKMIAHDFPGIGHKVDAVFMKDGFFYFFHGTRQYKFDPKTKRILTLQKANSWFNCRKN
Put plainly: MMP-1 of Table 1. Format: biochemical. The conditions noted are these: for MMP-1: unit not given; for IC50: unit inferred.

The target of assay [7] is T6, recombinant human MMP-2 (Homo sapiens, UniProt P08253).
T6 sequence (P08253 110-660): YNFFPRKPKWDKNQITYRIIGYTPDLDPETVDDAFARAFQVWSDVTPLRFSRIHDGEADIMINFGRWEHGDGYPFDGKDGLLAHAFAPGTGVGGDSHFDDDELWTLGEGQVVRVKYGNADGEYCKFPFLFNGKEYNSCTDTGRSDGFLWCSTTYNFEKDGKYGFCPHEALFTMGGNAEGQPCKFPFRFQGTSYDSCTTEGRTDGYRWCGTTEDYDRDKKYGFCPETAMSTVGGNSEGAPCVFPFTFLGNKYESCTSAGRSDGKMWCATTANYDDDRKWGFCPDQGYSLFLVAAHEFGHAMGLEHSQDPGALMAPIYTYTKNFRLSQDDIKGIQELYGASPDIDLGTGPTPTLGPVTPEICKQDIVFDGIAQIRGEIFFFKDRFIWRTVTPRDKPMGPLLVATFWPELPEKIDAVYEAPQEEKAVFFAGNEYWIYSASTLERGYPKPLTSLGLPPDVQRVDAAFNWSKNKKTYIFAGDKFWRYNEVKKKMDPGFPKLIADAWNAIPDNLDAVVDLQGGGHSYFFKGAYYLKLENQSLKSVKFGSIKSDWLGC
Put plainly: In vitro fluorescence assay of MMP-2 activity.
Experimental: A continuous assay was used in which the substrate is a synthetic peptide containing a fluorescent group (7-methoxycoumarin; Mca), which is quenched by energy transfer to a 2,4-dinitrophenyl group. […] The source of enzyme in the assay was the recombinant human MMP-2 (66 kDa; Oncogene Research Products (catalog number PF023 from Calbiochem)). The substrate used was the peptide Mca-PQGL-(3-[2,4-dinitrophenyl]-L-2,3-diaminopropionyl)-AR-OH. The assay buffer consisted of 50 mM Hepes (pH 7.4), 100 mM NaCl, 5 mM CaCl2, and 0.005% Brij-35. […] The plates were then incubated at 30° C. for 15 minutes. The enzymatic reactions were initiated by adding the substrate to a final concentration of 20 μM, and mixing 10 times with a pipette. The final DMSO concentration in the assay was 6.0%.
Plots of the inhibitor concentration vs. the percent inhibition were fit to the following equation: y=(a−d)/[^1+(x/c)^b]+d, a general sigmoidal curve with Hill slope, a to d. x is the inhibitor concentration under test. y is the percent inhibition. a is the limiting response as x approaches zero. As x increases without bound, y tends toward its limit d. c is the inflection point (IC50) for the curve. That is, y is halfway between the lower and upper asymptotes when x=c. b is the slope factor or Hill coefficient.

Setting [8] is: Table 1, first of two columns headed bovine.
The mark [9] stands for this setting: Table 1, second of two columns headed bovine.

In the case of `O=C(O)CC[C@H](NC(=O)c1ccc(-c2ccccc2)cc1)C(=O)NCc1ccc(Cl)cc1Cl` [Example 8S, N^2-(1,1′-biphenyl-4-ylcarbonyl)-N^1-(2,4-dichlorobenzyl)-L-α-glutamine], the Ki (as a rule, the dissociation constant of the complex between target and ligand, obtained from inhibition or displacement) in assay [1] was found to be 245 nM. Moreover, the IC50 (as a rule, the concentration at which inhibition is half-maximal) in assay [1] is 150 nM; in assay [2], 1300 nM; in assay [3], above 200 µM; in assay [4], around 25 µM; in assay [7] it was 3.13 µM. Moreover, the values for the bovine in assay [5] (setting [8]) and in assay [5] (setting [9]) were 51% and 40%, respectively. In assay [6], the MMP-1 entry is reported as “no inh”.
Take `O=C(O)CC[C@H](NC(=O)c1ccc(-c2ccccc2)cc1)C(=O)NC1CCCCC1` [Example 8A, N^2-(1,1′-biphenyl-4-ylcarbonyl)-N^1-cyclohexyl-L-α-glutamine]: the IC50 in assay [1] was 150 nM; in assay [2] it was 900 nM; in assay [3] it was around 40 µM; in assay [4], around 25 µM; in assay [6], above 100 µM; in assay [7], 4.4 µM. Moreover, the bovine in assay [5] (setting [8]) amounted to 75%; in assay [5] (setting [9]), 29%.
Consider `C=Cc1ccc(CNC(=O)[C@H](CCC(=O)O)NC(=O)c2ccc(-c3ccccc3)cc2)cc1` [Example 10R, N^2-(1,1′-biphenyl-4-ylcarbonyl)-N^1-(4-vinylbenzyl)-L-α-glutamine], for which, in assay [1], the Ki stood at 187 nM. Besides, the IC50 is 77 nM in assay [1]; 1900 nM in assay [2]; above 20 µM in assay [3]; above 200 µM in assay [4]; above 50 µM in assay [6]; above 20 µM in assay [7]. For the same molecule, the bovine in assay [5] (setting [8]) is 41%; in assay [5] (setting [9]), 0%.
As to `COc1ccc(CCNC(=O)[C@H](CCC(=O)O)NC(=O)c2ccc(-c3ccccc3)cc2)cc1OC` [Example 8L, N^2-(1,1′-biphenyl-4-ylcarbonyl)-N^1-[2-(3,4-dimethoxyphenyl)ethyl]-L-α-glutamine], the IC50 was 55 nM in assay [1]; 189 nM in assay [2]; around 50 µM in assay [3]; 21.5 µM in assay [4]; above 100 µM in assay [6]; 10.5 µM in assay [7]. Besides, the bovine in assay [5] (setting [8]) stood at 87%; in assay [5] (setting [9]), 79%.
In the case of `O=C(O)CC[C@H](NC(=O)c1ccc(-c2ccccc2)cc1)C(=O)NCc1ccc(F)cc1` [Example 8D, N^2-(1,1′-biphenyl-4-ylcarbonyl)-N^1-(4-fluorobenzyl)-L-α-glutamine], the IC50 in assay [1] was 220 nM; in assay [3], around 25 µM; in assay [4] it was 17 µM; in assay [6], above 100 µM; in assay [7], 4.4 µM. Besides, the bovine is 67% in assay [5] (setting [8]) and 27% in assay [5] (setting [9]).
Take `O=C(O)CC[C@H](NC(=O)c1ccc(-c2ccccc2)cc1)C(=O)NCCc1cccs1` [Example 8WW, N^2-(biphenyl-4-ylcarbonyl)-N^1-[2-(2-thienyl)ethyl]-L-α-glutamine]: the IC50 in assay [1] is 70 nM; in assay [2] it was 350 nM; in assay [3] it was around 50 µM; in assay [4], above 66.6 µM; in assay [7], 13.3 µM. Also, the MMP-1 entry in assay [6] is recorded as “no inh”.
For `O=C(O)CC[C@H](NC(=O)c1ccc(-c2ccccc2)cc1)C(=O)NCCc1ccccc1Cl` [Example 8VV, N^2-(biphenyl-4-ylcarbonyl)-N^1-[2-(2-chlorophenyl)ethyl]-L-α-glutamine], the IC50 in assay [1] was 100 nM; in assay [2], 1900 nM; in assay [3], around 50 µM; in assay [4], above 66.6 µM; in assay [7], 9.1 µM. In addition, in assay [6], the MMP-1 entry is “no inh”.
Regarding `O=C(O)CC[C@H](NC(=O)c1ccc(-c2ccccc2)cc1)C(=O)NCCCCCO` [Example 8WWW, N^2-(biphenyl-4-ylcarbonyl)-N^1-(5-hydroxypentyl)-L-α-glutamine], the half-maximal inhibitory concentration (IC50) in assay [1] was 36 nM; in assay [2], 840 nM; in assay [3] it was around 200 µM; in assay [4], above 200 µM; in assay [7], 7.4 µM. For the same molecule, the MMP-1 result in assay [6] was “no inh”.
Take `CC(C)(Cc1ccc(Cl)cc1)NC(=O)[C@H](CCC(=O)O)NC(=O)c1ccc(-c2ccccc2)cc1` [Example 8NN, N^2-(biphenyl-4-ylcarbonyl)-N^1-[2-(4-chlorophenyl)-1,1-dimethylethyl]-L-α-glutamine]: the Ki in assay [1] turned out to be 14 nM. Besides, the IC50 in assay [1] is below 30 nM; in assay [2] it was 133 nM; in assay [3], around 50 µM; in assay [6] it was above 200 µM; in assay [7], 9 µM. Further, the MMP-14 result in assay [4] (unit not given) is recorded as “no inh”.
